# According to PubChem BioAssay (NCI):
#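 Compound exposure: 48 hours, 5 concentrations, 96-well plates. TGI is the concentration that stops growth completely.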
# What was measured:
# Assay in all cases: NCI anticancer screen, dose series, 48 h
# MDA-MB-231 breast = tested on: MDA-MB-231 breast
# MOLT-4 leukemia = tested on: MOLT-4 leukemia
# M14 melanoma = tested on: M14 melanoma
# SK-OV-3 ovarian = tested on: SK-OV-3 ovarian
# T-47D breast = tested on: T-47D breast
# CCRF-CEM leukemia = tested on: CCRF-CEM leukemia
# RPMI-8226 leukemia = tested on: RPMI-8226 leukemia
# PC-3 prostate = tested on: PC-3 prostate
# DU-145 prostate = tested on: DU-145 prostate
# SNB-75 CNS = tested on: SNB-75 CNS
# TK-10 renal = tested on: TK-10 renal
# NCI-H522 lung = tested on: NCI-H522 lung
# OVCAR-3 ovarian = tested on: OVCAR-3 ovarian
# NCI-H23 lung = tested on: NCI-H23 lung
# HCT-116 colon = tested on: HCT-116 colon
# OVCAR-4 ovarian = tested on: OVCAR-4 ovarian
# MDA-MB-435 = tested on: MDA-MB-435
# ACHN renal = tested on: ACHN renal
# SR leukemia = tested on: SR leukemia
# LOX IMVI melanoma = tested on: LOX IMVI melanoma
# SK-MEL-28 melanoma = tested on: SK-MEL-28 melanoma
# HCC-2998 colon = tested on: HCC-2998 colon
# HT29 colon = tested on: HT29 colon
# NCI-H460 lung = tested on: NCI-H460 lung
# SF-268 CNS = tested on: SF-268 CNS
# U251 CNS = tested on: U251 CNS
# BT-549 breast = tested on: BT-549 breast
# NCI-H226 lung = tested on: NCI-H226 lung
# COLO 205 colon = tested on: COLO 205 colon
# UACC-257 melanoma = tested on: UACC-257 melanoma
# 786-0 renal = tested on: 786-0 renal
# A498 renal = tested on: A498 renal
# SN12C renal = tested on: SN12C renal
# NCI/ADR-RES ovarian = tested on: NCI/ADR-RES ovarian
# K-562 leukemia = tested on: K-562 leukemia
# SK-MEL-5 melanoma = tested on: SK-MEL-5 melanoma
# KM12 colon = tested on: KM12 colon
# MALME-3M melanoma = tested on: MALME-3M melanoma
# EKVX NSCLC = tested on: EKVX NSCLC
# RXF 393 renal = tested on: RXF 393 renal
# HCT-15 colon = tested on: HCT-15 colon
# UACC-62 melanoma = tested on: UACC-62 melanoma
# OVCAR-8 ovarian = tested on: OVCAR-8 ovarian
# MCF7 breast = tested on: MCF7 breast
# SF-295 CNS = tested on: SF-295 CNS
# SNB-19 CNS = tested on: SNB-19 CNS
# CAKI-1 renal = tested on: CAKI-1 renal
# IGROV1 ovarian = tested on: IGROV1 ovarian
# HOP-62 NSCLC = tested on: HOP-62 NSCLC
# HOP-92 NSCLC = tested on: HOP-92 NSCLC
# MDA-N = tested on: MDA-N
# HL-60(TB) leukemia = tested on: HL-60(TB) leukemia
# A549 NSCLC = tested on: A549 NSCLC
# OVCAR-5 ovarian = tested on: OVCAR-5 ovarian
# SW-620 colon = tested on: SW-620 colon
smiles,measurement,setting,value
[C-]#[N+]C(=C\c1ccc(O)cc1)/C(=C/c1ccc(O)cc1)[N+]#[C-],TGI,MDA-MB-231 breast,6.71 µM
same,TGI,MOLT-4 leukemia,7.67 µM
same,TGI,M14 melanoma,> 20.4 µM
same,TGI,SK-OV-3 ovarian,> 100 µM
same,TGI,T-47D breast,12.1 µM
same,TGI,CCRF-CEM leukemia,6.55 µM
same,TGI,RPMI-8226 leukemia,> 95.2 µM
same,TGI,PC-3 prostate,> 26.7 µM
same,TGI,DU-145 prostate,7.23 µM
same,TGI,SNB-75 CNS,6.83 µM
same,TGI,TK-10 renal,> 100 µM
same,TGI,NCI-H522 lung,> 33.1 µM
same,TGI,OVCAR-3 ovarian,> 100 µM
same,TGI,NCI-H23 lung,5.93 µM
same,TGI,HCT-116 colon,15.8 µM
same,TGI,OVCAR-4 ovarian,> 100 µM
same,TGI,MDA-MB-435,> 19.8 µM
same,TGI,ACHN renal,> 100 µM
same,TGI,SR leukemia,5.86 µM
same,TGI,LOX IMVI melanoma,5.16 µM
same,TGI,SK-MEL-28 melanoma,> 22.4 µM
same,TGI,HCC-2998 colon,> 50.6 µM
same,TGI,HT29 colon,> 73.8 µM
same,TGI,NCI-H460 lung,> 28.6 µM
same,TGI,SF-268 CNS,> 100 µM
same,TGI,U251 CNS,> 23.7 µM
same,TGI,BT-549 breast,> 23.1 µM
same,TGI,NCI-H226 lung,> 22.7 µM
same,TGI,COLO 205 colon,56.6 µM
same,TGI,UACC-257 melanoma,6.98 µM
same,TGI,786-0 renal,> 100 µM
same,TGI,A498 renal,> 24.8 µM
same,TGI,SN12C renal,6.37 µM
same,TGI,NCI/ADR-RES ovarian,> 24.5 µM
same,TGI,K-562 leukemia,> 100 µM
same,TGI,SK-MEL-5 melanoma,5.36 µM
same,TGI,KM12 colon,> 22.3 µM
same,TGI,MALME-3M melanoma,4.39 µM
same,TGI,EKVX NSCLC,> 100 µM
same,TGI,RXF 393 renal,4.46 µM
same,TGI,HCT-15 colon,> 100 µM
same,TGI,UACC-62 melanoma,3.7 µM
same,TGI,OVCAR-8 ovarian,> 20.5 µM
same,TGI,MCF7 breast,> 36.7 µM
same,TGI,SF-295 CNS,> 100 µM
same,TGI,SNB-19 CNS,> 100 µM
same,TGI,CAKI-1 renal,5.63 µM
same,TGI,IGROV1 ovarian,> 23.6 µM
same,TGI,HOP-62 NSCLC,> 100 µM
same,TGI,HOP-92 NSCLC,> 100 µM
same,TGI,MDA-N,3.35 µM
same,TGI,HL-60(TB) leukemia,> 24 µM
same,TGI,A549 NSCLC,> 69.9 µM
same,TGI,OVCAR-5 ovarian,> 31.8 µM
same,TGI,SW-620 colon,> 34.3 µM
